The text below walks through data of patent US20080227798A1, “POLYMORPHS OF SUCCINATE SALT OF 2-[6-(3-AMINO-PIPERIDIN-1-YL)-3-METHYL-2,4-DIOXO-3,4-DIHYDRO-2H-PYRIMIDIN-1-YLMETHY]-4-FLUOR-BENZONITRILE AND METHODS OF USE THEREFOR” (priority 2006, published 2008).

Entries after “also recorded” stand apart in the source; their conditions may differ.

Common to all, as to type: physicochemical
Series [1] can be described thus: Thermogravimetric analysis (TGA). The procedure: Thermogravimetric (TG) analyses were performed using a TA Instruments 2950 thermogravimetric analyzer. Each sample was placed in an aluminum sample pan and inserted into the TG furnace. The furnace was first equilibrated at 25° C., then heated under nitrogen at a rate of 10° C./min, up to a final temperature of 350° C. Nickel and Alumel™ were used as the calibration standards.

Series [2] can be described thus: Moisture sorption/desorption analysis. The following applies: for weight lost on desorption: 95-5% RH. How it is done:
Moisture sorption/desorption data were collected on a VTI SGA-100 Vapor Sorption Analyzer. Sorption and desorption data were collected over a range of 5% to 95% relative humidity (RH) at 10% RH intervals under a nitrogen purge. Samples were not dried prior to analysis. Equilibrium criteria used for analysis were less than 0.0100% weight change in 5 minutes, with a maximum equilibration time of 3 hours if the weight criterion was not met. Data were not corrected for the initial moisture content of the samples. NaCl and PVP were used as calibration standards. Moisture sorption and desorption study was conducted on a sample of Form A+B. The sample was prepared by crashed cooling crystallization (Example 3, section A.6) of the polymorphic forms from a ethanol:water (95:5) solution of Compound I. The moisture sorption and desorption study was conducted according to the procedures outlined in Example 3, section B.10. The data collected is plotted in FIG. 13 and summarized in Table L. Moisture sorption and desorption study was conducted on a sample of Form E. The sample was prepared by solvent/antisolvent crystallization (Example 3, section A.7) by the addition of acetonitrile to Compound I in water. The moisture sorption and desorption study was conducted according to the procedures outlined in Example 3, section B.10. The data collected is plotted in FIG. 23 and summarized in Table M. Moisture sorption and desorption study was conducted on a sample of Amorphous Form. The sample was prepared by lyophilolization of a solution of Compound I in water (Example 3, section A.9). The moisture sorption and desorption study was conducted according to the procedures outlined in Example 3, section B.10.

Series [3] can be described thus: Thermogravimetric-infrared (TG-IR) analysis. From the text: Thermogravimetric infrared (TG-IR) analyses were acquired on a TA Instruments thermogravimetric (TG) analyzer model 2050 interfaced to a Magna 560® Fourier transform infrared (FT-IR) spectrophotometer (Thermo Nicolet) equipped with an Ever-Glo mid/far IR source, a potassium bromide (KBr) beamsplitter, and a deuterated triglycine sulfate (DTGS) detector. The TG instrument was operated under a flow of helium at 90 and 10 cc/min for the purge and balance, respectively. Each sample was placed in a platinum sample pan, inserted into the TG furnace, accurately weighed by the instrument, and the furnace was heated from ambient temperature to 250° C. at a rate of 20° C./min. The TG instrument was started first, immediately followed by the FT-IR instrument. Each IR spectrum represents 32 co-added scans collected at a spectral resolution of 4 cm^−1. A background scan was collected before the beginning of the experiment. Wavelength calibration was performed using polystyrene. The TG calibration standards were nickel and Alumel™. Volatiles were identified from a search of the High Resolution Nicolet TGA Vapor Phase spectral library.

Series [4] in a line: Slurry interconversion studies. From the text: An excess amount of Compound I was slurried in test solvent on a rotating wheel for approximately 5 or 7 days. The solids were typically collected by vacuum filtration, air dried in the hood, and analyzed by XRPD for form identification.
Samples of mixture of Form A and Form B of Compound I were slurried in water and THF:water (9:1), for up to 13 days.

The nature of another series: Dehydration experiment. The text has this:
Hydrated samples of Compound I were dehydrated at ambient conditions (2 days) and in an ambient temperature vacuum oven (1 day). The solids were collected and analyzed by XRPD for form identification.
Aliquots of Form A+B of Compound I were stored at ambient condition for two days and in an ambient temperature vacuum over for one day. The solids were collected and analyzed by XRPD and confirmed to be Form A.

The nature of series [5]: Relative humidity stressing experiments. From the text: Samples of Compound I were placed uncovered in approximately 58%, 88%, and 97% relative humidity jars. The samples were stored in the jars for approximately 8 days. The solids were collected and analyzed by XRPD for form identification. […] An aliquot of a mixture of Form A+B was stressed at 88% relative humidity for 23 days. Amorphous Form was stressed at 58% and 88% relative humidity for 23 days.

With `Cn1c(=O)cc(N2CCC[C@@H](N)C2)n(Cc2ccccc2C#N)c1=O.O=C(O)CCC(=O)O` [Amorphous Form], the TGA weight loss in series [1] (from 25° C. to 95° C.) was 1.8%; in series [1] (from 25° C. to 95° C., lyophilized from Compound I in water) it was 1.8% weight loss from 25 °C to 95 °C. Also, the “weight lost on desorption” value in series [2] is on record as “Approximately 4.7%”. The Weight % chg was −1.269% in series [2] (Samp RH 4.97%, 25.05° C., elapsed 1278.0 min (desorption)); −0.975% in series [2] (Samp RH 5.09%, 25.06° C., elapsed 84.0 min); −0.589% in series [2] (Samp RH 14.98%, 25.06° C., elapsed 113.6 min (sorption)); −1.148% in series [2] (Samp RH 15.06%, 25.04° C., elapsed 1243.6 min (desorption)); −0.166% in series [2] (Samp RH 24.92%, 25.05° C., elapsed 158.4 min (sorption)); −1.026% in series [2] (Samp RH 25.13%, 25.05° C., elapsed 1210.7 min (desorption)). In addition, the Weight % chg in series [2] (Samp RH 34.90%, 25.04° C., elapsed 277.5 min (sorption)) is 0.841%; in series [2] (Samp RH 35.06%, 25.05° C., elapsed 1179.2 min (desorption)), −0.912%; in series [2] (Samp RH 41.98%, 25.04° C., elapsed 0.1 min (start)) it was 0.000%; in series [2] (Samp RH 45.05%, 25.03° C., elapsed 392.7 min (sorption)), 2.393%; in series [2] (Samp RH 45.07%, 25.05° C., elapsed 1144.4 min (desorption)) it was −0.776%; in series [2] (Samp RH 54.99%, 25.02° C., elapsed 470.8 min (sorption)), 4.540%. In addition, the Weight % chg in series [2] (Samp RH 55.11%, 25.04° C., elapsed 1092.3 min (desorption)) was −0.545%; in series [2] (Samp RH 64.90%, 25.02° C., elapsed 508.0 min (sorption)) it was 6.988%; in series [2] (Samp RH 65.07%, 25.03° C., elapsed 1039.8 min (desorption)) it was −0.280%; in series [2] (Samp RH 74.82%, 25.02° C., elapsed 654.6 min (sorption)), 0.437%; in series [2] (Samp RH 74.92%, 25.02° C., elapsed 957.5 min (desorption)) it was 0.176%; in series [2] (Samp RH 84.78%, 25.03° C., elapsed 703.8 min (sorption)), 0.922%. The Weight % chg in series [2] (Samp RH 85.31%, 25.02° C., elapsed 877.9 min (desorption)) turned out to be 1.010%; in series [2] (Samp RH 94.59%, 25.02° C., elapsed 806.9 min (sorption)), 3.400%. Also, the “Post MB XRPD (form after moisture sorption/desorption analysis)” value in series [2] (after moisture sorption/desorption) is “Crystalline, Form A (FIG. 31)”. Moreover, the “weight lost on sorption” value in series [2] (at 75% relative humidity) is given as “Approximately 7%”. In addition, in series [2] (equilibration at 5% RH), the “weight loss on equilibration at 5% relative humidity” value is 1.0%. Besides, the “weight lost on equilibration” value in series [2] (equilibration at 5% RH) is on record as 1.0% weight lost on equilibration at 5% RH,. The weight gain in series [2] (from 5-95% RH) is 4.4%. Also, the “weight gain on sorption” value in series [2] (from 75% to 95% relative humidity) came out at 4.4%. In series [2] (from 95-5% RH), this molecule gave a weight lost of 4.7%. For the same molecule, the “form by XRPD of the material remaining after the moisture sorption/desorption analysis” value in series [2] (post moisture sorption/desorption) is recorded as “Form A; also recorded: low crystallinity A”. Also, the “weight gained on sorption” value in series [2] (up to 65% relative humidity) was “Approximately 8%”.

Turning to `Cn1c(=O)cc(N2CCC[C@@H](N)C2)n(Cc2cc(F)ccc2C#N)c1=O.O=C(O)CCC(=O)O` [Form D], in series [1] (equilibration plus 25° C. to 85° C.), the “TGA total weight loss” value is on record as “approximately 30%”. The “water content consistent with total weight loss” value in series [1] (from about 30% total weight loss) is listed as “approximately 11 moles of water”. Besides, in series [3] (heated from 20° C. to 100° C., evaporation of water), the TG-IR weight loss is 24.0% weight loss when heated from.

Regarding `Cn1c(=O)cc(N2CCC[C@@H](N)C2)n(Cc2cc(F)ccc2C#N)c1=O.O=C(O)CCC(=O)O` [A + B], the “Final Form after slurry (XRPD)” value in series [4] (THF:H2O 9:1, 13 days (approximate)) is recorded as “A + B”.

Regarding `Cn1c(=O)cc(N2CCC[C@@H](N)C2)n(Cc2cc(F)ccc2C#N)c1=O.O=C(O)CCC(=O)O` [Form A+B], the “form by XRPD after dehydration” value in the series “Dehydration experiment” (ambient conditions, two days) is “converted to Form A”; in “Dehydration experiment” (vacuum oven at ambient temperature, one day), “converted to Form A”. The “reversible weight change on sorption/desorption” value in series [2] worked out at 1.2%. In series [2] (5-95% RH), the “weight gain on sorption” value is 1.2% weight gain from 5-95% RH. The “weight lost on desorption” value in series [2] is recorded as 1.2% weight lost from 95-5% RH. The Weight % chg in series [2] (Samp RH 4.83%, 25.10° C., elapsed 445.9 min (desorption)) is reported as −0.658%; in series [2] (Samp RH 5.14%, 25.05° C., elapsed 91.5 min), −0.665%; in series [2] (Samp RH 14.88%, 25.04° C., elapsed 137.8 min (sorption)), −0.184%; in series [2] (Samp RH 14.96%, 25.09° C., elapsed 359.7 min (desorption)) it was 0.020%; in series [2] (Samp RH 25.03%, 25.07° C., elapsed 165.5 min (sorption)) it was 0.004%; in series [2] (Samp RH 25.11%, 25.09° C., elapsed 338.5 min (desorption)), 0.149%. The Weight % chg is listed as 0.098% in series [2] (Samp RH 34.82%, 25.06° C., elapsed 179.7 min (sorption)); 0.237% in series [2] (Samp RH 34.92%, 25.06° C., elapsed 319.3 min (desorption)); 0.208% in series [2] (Samp RH 44.88%, 25.06° C., elapsed 196.2 min (sorption)); 0.299% in series [2] (Samp RH 45.07%, 25.07° C., elapsed 307.3 min (desorption)); 0.284% in series [2] (Samp RH 54.95%, 25.06° C., elapsed 208.7 min (sorption)); 0.353% in series [2] (Samp RH 55.02%, 25.07° C., elapsed 296.5 min (desorption)). The Weight % chg in series [2] (Samp RH 62.77%, 25.03° C., elapsed 0.1 min (start)) amounted to 0.000%; in series [2] (Samp RH 64.94%, 25.04° C., elapsed 285.2 min (desorption)), 0.406%; in series [2] (Samp RH 65.00%, 25.08° C., elapsed 219.7 min (sorption)) it was 0.347%; in series [2] (Samp RH 75.01%, 25.05° C., elapsed 231.9 min (sorption)), 0.406%; in series [2] (Samp RH 75.35%, 25.08° C., elapsed 274.2 min (desorption)), 0.456%; in series [2] (Samp RH 84.92%, 25.09° C., elapsed 243.8 min (sorption)) it was 0.466%. The Weight % chg in series [2] (Samp RH 85.01%, 25.08° C., elapsed 265.2 min (desorption)) came out at 0.510%; in series [2] (Samp RH 94.67%, 25.08° C., elapsed 256.6 min (sorption)) it was 0.563%. The “water content consistent with weight loss” value in series [3] (from 2.4% weight loss) is on record as 0.5 to 1.0 moles of water. The “form by XRPD after slurry” value in series [4] (slurried in water and THF:water (9:1), up to 13 days) is listed as “either Form A or Form A+B”. Also, in series [4] (slurried in water, water removed by evaporation), the form after slurry result is given as “converted to Form A”. Moreover, the “form by XRPD after relative humidity stressing” value was “Form A” in series [5] (58% relative humidity, 23 days) and “Form A” in series [5] (88% relative humidity, 23 days).

As for `Cn1c(=O)cc(N2CCC[C@@H](N)C2)n(Cc2ccccc2C#N)c1=O.O=C(O)CCC(=O)O` [Form A], in series [1] (heated from 25° C. to 165° C.), the TGA weight loss entry was “insignificant weight loss”. Further, the “stability at ambient conditions” value in series [5] (ambient conditions, conclusion from characterization data) is recorded as “stable”. Moreover, the “form by XRPD after relative humidity stressing” value was “Form A” in series [5] (approximately 50% relative humidity, 29 days); “did not exhibit form changes” in series [5] (approximately 58% relative humidity, 29 days); “did not exhibit form changes; also recorded: Form A” in series [5] (approximately 97% relative humidity, 29 days).
